Patent US4308274A, “N-Alkylsulfonyl-, N-arylsulfonyl-, and N-aminosulfonylaminosulfinylcarbamate esters” (priority 1979, dated 1981)
Read-outs that look alike come from different tables or passages of the source.

Tests used:
[1] = system: house flies, Musca domestica; experiment: insecticidal activity against house flies (topical, 24 hours mortality); assay type: in vivo; details: read-out: House flies LD50
Procedure: Representative carbamate esters of the invention were tested for insecticidal activity against house flies, Musca domestica. Stock 1% concentrated solutions for each of the test compounds were made in acetone, and such solutions diluted with acetone to a concentration of 0.001-0.1%. House flies were treated topically on the notum by 1 μl of each of the diluted acetone solutions and percent mortality was counted 24 hours after application. The insects were held at a constant temperature of 60° F. Results are given in μg/g.

[2] = mammalian toxicity against Swiss white mice (oral); details: mouse, in vivo, corn oil carrier
Procedure: Mammalian toxicity was determined against Swiss white mice.

[3] = topical on the notum, 1 μl acetone solution, percent mortality 24 hours after application, 60° F

In the case of `CN(C(=O)Oc1cccc2c1OC(C)(C)C2)[S+]([O-])N(C)S(=O)(=O)N1CCOCC1` (stereo not drawn) [Example X, 2,3-Dihydro-2,2-dimethylbenzofuranyl-7N-[N'-(N"-morpholinosulfonyl)-N'-methylaminosulfinyl]N-methylcarbamate], the LD50 ([1]; topical, 24 h) is reported as 13 mg/kg.
Work on `CC(C)c1cccc(OC(=O)N(C)[S+]([O-])N(C)S(=O)(=O)c2ccccc2)c1` (stereo not drawn) [III, 3-isopropylphenyl N-(N'-benzenesulfonyl-N'-methylaminosulfinyl)-N-methylcarbamate] yielded an LD50 ([1]; topical, 24 h) of 95 mg/kg and an LD50 [2] of 150 mg/kg.
`CC(C)Oc1ccccc1OC(=O)N(C)[S+]([O-])N(C)S(=O)(=O)c1ccccc1` (stereo not drawn) [II, 2-isopropoxyphenyl N-(N'-benzenesulfonyl-N'-methylaminosulfinyl)-N-methylcarbamate] gave an LD50 ([1]; topical, 24 h) of 55 mg/kg and an LD50 [2] of 250 mg/kg.
For `CCCCN(CCCC)S(=O)(=O)N(C)[S+]([O-])N(C)C(=O)Oc1cccc2c1OC(C)(C)C2` (stereo not drawn) [Example IX, 2,3-dihydro-2,2-dimethylbenzofuranyl-7 N-(N'-dibutylaminosulfonyl-N'-methylaminosulfinyl)-N-methylcarbamate], the LD50 ([1]; topical, 24 h) was 12 mg/kg and the LD50 [2] was 25 mg/kg.
With `CCN([S+]([O-])N(C)C(=O)Oc1cccc2c1OC(C)(C)C2)S(C)(=O)=O` (stereo not drawn) [VI, 2,3-dihydro-2,2-dimethylbenzofuranyl-7 N-(N'-methanesulfonyl-N'-ethylaminosulfinyl)-N-methylcarbamate] the LD50 ([1]; topical, 24 h) was 12.5 mg/kg.
For `CCCCN(CCCC)S(=O)(=O)N(C)[S+]([O-])N(C)C(=O)ON=C(C)SC` (stereo not drawn) [Example XII, S-methyl N-[N'-(N"-dibutylaminosulfonyl-N"-methylaminosulfinyl)-N'-methylcarbamoyloxy]thioacetimidate], the LD50 [1, 3] was 9 mg/kg and the LD50 [2] was 100 mg/kg.
In the case of `CSC(C)=NOC(=O)N(C)[S+]([O-])N(C)S(=O)(=O)c1ccccc1` (stereo not drawn) [V, S-methyl N-[N'-(N"-benzenesulfonyl-N"-methylaminosulfinyl)-N'-methylcarbamoyloxy]thioacetimidate], the LD50 [1, 3] is reported as 17.5 mg/kg and the LD50 [2] is reported as 86 mg/kg.
`CCN([S+]([O-])N(C)C(=O)Oc1cccc2c1OC(C)(C)C2)S(=O)(=O)N1CCOCC1` (stereo not drawn) [Example XI, 2,3-Dihydro-2,2-dimethylbenzofuranyl-7-N-(N'-morpholinosulfonyl-N'-ethylaminosulfinyl)-N-methylcarbamate] showed an LD50 ([1]; topical, 24 h) of 10 mg/kg.
Work on `CCN([S+]([O-])N(C)C(=O)Oc1cccc(C(C)C)c1)S(C)(=O)=O` (stereo not drawn) [VII, 3-isopropylphenyl N-(N'-methanesulfonyl-N'-ethylaminosulfinyl)-N-methylcarbamate] yielded an LD50 ([1]; topical, 24 h) of 90 mg/kg and an LD50 [2] of 200 mg/kg.
With `CN(C(=O)Oc1cccc2c1OC(C)(C)C2)[S+]([O-])N(C)S(=O)(=O)c1ccccc1` (stereo not drawn) [Example I, 2,3-dihydro-2,2-dimethylbenzofuranyl-7N-(N'-benzenesulfonyl-N'-methylaminosulfinyl)-N-methylcarbamate] the LD50 ([1]; topical, 24 h) was 9.5 mg/kg and the LD50 [2] was 35 mg/kg.
In the case of `CN(C(=O)Oc1cccc2ccccc12)[S+]([O-])N(C)S(=O)(=O)c1ccccc1` (stereo not drawn) [IV, 1-naphthyl N-(N'-benzenesulfonyl-N'-methylaminosulfinyl)-N-methylcarbamate], the LD50 ([1]; topical, 24 h) is reported as 450 mg/kg and the LD50 [2] is reported as greater than 500 mg/kg.
For `CCN([S+]([O-])N(C)C(=O)ON=C(C)SC)S(C)(=O)=O` (stereo not drawn) [VIII, S-methyl N-[N'-(N"-methanesulfonyl-N"-ethylaminosulfinyl)-N'-methylcarbamoyloxy]thioacetimidate], the LD50 [1, 3] was 25 mg/kg and the LD50 [2] was 250 mg/kg.
